Experimental data from patent US10111875B2, “Pyrrolopyrimidine compounds and uses thereof” (HUTCHISON MEDIPHARMA LIMITED, priority 2010, dated 2018).

Target: Recombinant human JAK1 catalytic domain (Homo sapiens (Human), UniProt P23458)
Assay: JAK1 kinase assay (Z'-LYTE Tyr 6 Peptide)
Assay type: biochemical
Settings: JAK1 kinase assay, 0.3 uM concentration; read-out: inhibition percentage (IR %)
Protocol: JAK1/2/3 kinase assay are performed in vitro using Kit-Tyr 6 Peptide (Invitrogen, Cat. No. PV4122). TYK2 kinase assay are performed in vitro using Z′-LYTE™ Kinase Assay Kit-Tyr 3 Peptide (Invitrogen, Cat. No. PV3192). […] All compounds are initially tested at 8 different concentrations (1 μM down to 0.0003 μM) using a 1:3 serial dilution scheme.

Recombinant human JAK1 catalytic domain, sequence (P23458 875-1153): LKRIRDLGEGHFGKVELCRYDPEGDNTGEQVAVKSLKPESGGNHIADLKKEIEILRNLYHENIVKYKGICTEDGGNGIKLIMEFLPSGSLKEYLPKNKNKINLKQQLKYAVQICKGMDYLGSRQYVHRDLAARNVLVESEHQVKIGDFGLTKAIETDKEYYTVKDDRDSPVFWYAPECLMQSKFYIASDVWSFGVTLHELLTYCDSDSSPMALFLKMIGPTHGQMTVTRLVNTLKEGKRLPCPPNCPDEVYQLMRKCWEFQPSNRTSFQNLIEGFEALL

| inhibition at 0.3 µM [%] | SMILES |
| --- | --- |
| 50 to 100 | CN(c1ccc(C(=O)NC2c3ccccc3C[C@H]2O)cc1F)[C@@H]1CCN(c2ncnc3[nH]ccc23)C1 (single isomer, unassigned) [Compound 204] |
| 50 to 100 | CCCC(=O)N(C)[C@@H]1CCN(c2ncnc3[nH]ccc23)C1 [Compound 3] |
| 20 to 50 | COCC(=O)N(C)[C@@H]1CCN(c2ncnc3[nH]ccc23)C1 [Compound 4] |
| 20 to 50 | CN(C(=O)c1cccnc1)[C@@H]1CCN(c2ncnc3[nH]ccc23)C1 [Compound 5] |
| 50 to 100 | CN(C(=O)C1(C#N)CC1)[C@@H]1CCN(c2ncnc3[nH]ccc23)C1 [Compound 6] |
| 20 to 50 | CN(C(=O)c1cccc(C#N)c1)[C@@H]1CCN(c2ncnc3[nH]ccc23)C1 [Compound 8] |
| 20 to 50 | CN([C@@H]1CCN(c2ncnc3[nH]ccc23)C1)S(=O)(=O)c1ccc(C#N)cc1 [Compound 9] |
| 50 to 100 | CN([C@@H]1CCN(c2ncnc3[nH]ccc23)C1)S(=O)(=O)c1cccc(C#N)c1 [Compound 10] |
| 20 to 50 | CN([C@@H]1CCN(c2ncnc3[nH]ccc23)C1)S(=O)(=O)c1ccc([N+](=O)[O-])cc1 [Compound 11] |
| 50 to 100 | CN([C@@H]1CCN(c2ncnc3[nH]ccc23)C1)S(=O)(=O)c1cccc([N+](=O)[O-])c1 [Compound 12] |
| 20 to 50 | COc1ccc(S(=O)(=O)N(C)[C@@H]2CCN(c3ncnc4[nH]ccc34)C2)cc1 [Compound 13] |
| 50 to 100 | CN(C)S(=O)(=O)N(C)[C@@H]1CCN(c2ncnc3[nH]ccc23)C1 [Compound 14] |
| 50 to 100 | CN([C@@H]1CCN(c2ncnc3[nH]ccc23)C1)S(=O)(=O)N1CCCC1 [Compound 15] |
| 50 to 100 | CN(C(=O)Nc1cccc(C#N)c1)[C@@H]1CCN(c2ncnc3[nH]ccc23)C1 [Compound 16, (R)-1-(1-(7H-pyrrolo[2,3-d]pyrimidin-4-yl)pyrrolidin-3-yl)-3-(3-cyanophenyl)-1-methylurea] |
| 50 to 100 | CN(C(=O)Nc1ccc(C#N)cc1)[C@@H]1CCN(c2ncnc3[nH]ccc23)C1 [Compound 17] |
| 20 to 50 | CN(C(=O)CC1CC1)[C@@H]1CCN(c2ncnc3[nH]ccc23)C1 [Compound 19] |
| 50 to 100 | CN(C(=O)Cc1ccc(C#N)cc1)[C@@H]1CCN(c2ncnc3[nH]ccc23)C1 [Compound 20] |
| 50 to 100 | CN(C(=O)CCc1c(Cl)cccc1Cl)[C@@H]1CCN(c2ncnc3[nH]ccc23)C1 [Compound 21] |
| 50 to 100 | CN(C(=O)CO)[C@@H]1CCN(c2ncnc3[nH]ccc23)C1 [Compound 24] |
| 50 to 100 | CN(C(=O)CS(C)(=O)=O)[C@@H]1CCN(c2ncnc3[nH]ccc23)C1 [Compound 27] |
| 50 to 100 | CN([C@@H]1CCN(c2ncnc3[nH]ccc23)C1)S(=O)(=O)C1CCCCC1 [Compound 28] |
| 50 to 100 | CN(C(=O)N[C@@H]1c2ccccc2C[C@H]1O)[C@@H]1CCN(c2ncnc3[nH]ccc23)C1 [Compound 29, 1-((R)-1-(7H-pyrrolo[2,3-d]pyrimidin-4-yl)pyrrolidin-3-yl)-3-((1R,2R)-2-hydroxy-2,3-dihydro-1H-inden-1-yl)-1-methylurea] |
| 50 to 100 | CN(C(=O)Nc1ccc(C(F)(F)F)cc1)[C@@H]1CCN(c2ncnc3[nH]ccc23)C1 [Compound 30] |
| 50 to 100 | CN(C(=O)Nc1ccc(C#N)c(F)c1)[C@@H]1CCN(c2ncnc3[nH]ccc23)C1 [Compound 31] |

| inhibition at 0.3 µM [%] | SMILES |
| --- | --- |
| 50 to 100 | CN(C(=O)Nc1ccc(Cl)cc1)[C@@H]1CCN(c2ncnc3[nH]ccc23)C1 [Compound 33] |
| 20 to 50 | CN(C(=O)N1CCC[C@@H]1C(N)=O)[C@@H]1CCN(c2ncnc3[nH]ccc23)C1 [Compound 35] |
| 50 to 100 | CN(C(=O)N1CCC[C@@H]1C#N)[C@@H]1CCN(c2ncnc3[nH]ccc23)C1 [Compound 38] |
| 20 to 50 | C#CCN(C1CCCC1)[C@@H]1CCN(c2ncnc3[nH]ccc23)C1 [Compound 39, (R)—N-cyclopentyl-N-(prop-2-ynyl)-1-(7H-pyrrolo[2,3-d]pyrimidin-4-yl)pyrrolidin-3-amine] |
| 50 to 100 | C=CCN(C1CCCC1)[C@@H]1CCN(c2ncnc3[nH]ccc23)C1 [Compound 40] |
| 50 to 100 | N#Cc1ccc(N(C2CC2)[C@@H]2CCN(c3ncnc4[nH]ccc34)C2)nc1 [Compound 41] |
| 50 to 100 | COc1nc(N(C)[C@@H]2CCN(c3ncnc4[nH]ccc34)C2)ccc1C#N [Compound 42] |
| 20 to 50 | CN([C@@H]1CCN(c2ncnc3[nH]ccc23)C1)S(=O)(=O)c1c(F)cccc1F [Compound 43] |
| 20 to 50 | CCN(c1ccc(S(C)(=O)=O)cn1)[C@@H]1CCN(c2ncnc3[nH]ccc23)C1 [Compound 44] |
| 50 to 100 | N#CCN(C1CCCC1)[C@@H]1CCN(c2ncnc3[nH]ccc23)C1 [Compound 45] |
| 50 to 100 | N#Cc1ccc2c(c1)CCN2C1CCN(c2ncnc3[nH]ccc23)C1 (stereo not drawn) [Compound 46] |
| 50 to 100 | CCS(=O)(=O)N(C)[C@@H]1CCN(c2ncnc3[nH]ccc23)C1 [Compound 48] |
| 50 to 100 | CC(C)S(=O)(=O)N(C)[C@@H]1CCN(c2ncnc3[nH]ccc23)C1 [Compound 49] |
| 50 to 100 | N#CCN(C1CCC1)[C@@H]1CCN(c2ncnc3[nH]ccc23)C1 [Compound 52] |
| 50 to 100 | CN(C1CCCC1)[C@@H]1CCN(c2ncnc3[nH]ccc23)C1 [Compound 53] |
| 20 to 50 | C#CCN(C1CCCCC1)[C@@H]1CCN(c2ncnc3[nH]ccc23)C1 [Compound 54] |
| 50 to 100 | N#CCN(C1CC1)[C@@H]1CCN(c2ncnc3[nH]ccc23)C1 [Compound 55] |
| 50 to 100 | C#CCN(C1CCOC1)[C@@H]1CCN(c2ncnc3[nH]ccc23)C1 (stereo partly drawn) [Compound 56] |
| 20 to 50 | CN([C@@H]1CCN(c2ncnc3[nH]ccc23)C1)S(=O)(=O)C1CC1 [Compound 57] |
| 20 to 50 | C#CCN(c1ccc(S(C)(=O)=O)cn1)[C@@H]1CCN(c2ncnc3[nH]ccc23)C1 [Compound 58] |
| 50 to 100 | CN(C(=O)N1CCCC1C(F)(F)F)[C@@H]1CCN(c2ncnc3[nH]ccc23)C1 (stereo partly drawn) [Compound 59] |
| 50 to 100 | CN(c1ccc(C#N)nn1)[C@@H]1CCN(c2ncnc3[nH]ccc23)C1 [Compound 60] |
| 50 to 100 | CN(c1ccc(S(C)(=O)=O)cn1)[C@@H]1CCN(c2ncnc3[nH]ccc23)C1 [Compound 61] |
| 50 to 100 | CN(c1ccc(C(F)(F)F)nn1)[C@@H]1CCN(c2ncnc3[nH]ccc23)C1 [Compound 62] |

| inhibition at 0.3 µM [%] | SMILES |
| --- | --- |
| 50 to 100 | CN(c1ccnc(Cl)n1)[C@@H]1CCN(c2ncnc3[nH]ccc23)C1 [Compound 63, (R)—N-(1-(7H-pyrrolo[2,3-d]pyrimidin-4-yl)pyrrolidin-3-yl)-2-chloro-N-methylpyrimidin-4-amine] |
| 50 to 100 | CN(CCC#N)[C@@H]1CCN(c2ncnc3[nH]ccc23)C1 [Compound 64] |
| 20 to 50 | C#CCN(C)[C@@H]1CCN(c2ncnc3[nH]ccc23)C1 [Compound 65] |
| 20 to 50 | CN(c1ccc(F)cn1)[C@@H]1CCN(c2ncnc3[nH]ccc23)C1 [Compound 66] |
| 50 to 100 | CN(c1ccc(Cl)cn1)[C@@H]1CCN(c2ncnc3[nH]ccc23)C1 [Compound 67] |
| 50 to 100 | CN(c1ccc(Br)cn1)[C@@H]1CCN(c2ncnc3[nH]ccc23)C1 [Compound 68] |
| 50 to 100 | CN(c1ccc([N+](=O)[O-])cn1)[C@@H]1CCN(c2ncnc3[nH]ccc23)C1 [Compound 70] |
| 50 to 100 | CN(c1ccc(C#N)cn1)[C@@H]1CCN(c2ncnc3[nH]ccc23)C1 [Compound 71] |
| 50 to 100 | Cc1cc(N(C)[C@@H]2CCN(c3ncnc4[nH]ccc34)C2)nc(Cl)c1C#N [Compound 72] |
| 50 to 100 | Cc1cc(Cl)nc(N(C)[C@@H]2CCN(c3ncnc4[nH]ccc34)C2)c1C#N [Compound 73] |
| 50 to 100 | CN(c1ncc([N+](=O)[O-])cc1Cl)[C@@H]1CCN(c2ncnc3[nH]ccc23)C1 [Compound 74] |
| 20 to 50 | Cc1cc([N+](=O)[O-])cnc1N(C)[C@@H]1CCN(c2ncnc3[nH]ccc23)C1 [Compound 75] |
| 20 to 50 | CN(c1ccc(C#N)nc1)[C@@H]1CCN(c2ncnc3[nH]ccc23)C1 [Compound 76] |
| 50 to 100 | Cc1cc(N(C)[C@@H]2CCN(c3ncnc4[nH]ccc34)C2)ncc1[N+](=O)[O-] [Compound 77] |
| 20 to 50 | CN(c1ccc([N+](=O)[O-])c(N)n1)[C@@H]1CCN(c2ncnc3[nH]ccc23)C1 [Compound 78] |
| 50 to 100 | CN(c1nc(Cl)nc2ccccc12)[C@@H]1CCN(c2ncnc3[nH]ccc23)C1 [Compound 79] |
| 50 to 100 | CN(c1ncnc2ccccc12)[C@@H]1CCN(c2ncnc3[nH]ccc23)C1 [Compound 80] |
| 50 to 100 | N#Cc1ccc(N[C@@H]2CCN(c3ncnc4[nH]ccc34)C2)nc1 [Compound 81] |
| 50 to 100 | CN(c1ncc(C#N)cc1Cl)[C@@H]1CCN(c2ncnc3[nH]ccc23)C1 [Compound 83] |
| 50 to 100 | CN(c1cnc(C#N)cn1)[C@@H]1CCN(c2ncnc3[nH]ccc23)C1 [Compound 84] |
| 50 to 100 | CN(c1ccc(Cl)nn1)[C@@H]1CCN(c2ncnc3[nH]ccc23)C1 [Compound 85] |
| 50 to 100 | COc1cc2ncnc(N(C)[C@@H]3CCN(c4ncnc5[nH]ccc45)C3)c2cc1OC [Compound 86] |
| 50 to 100 | CN(c1nc(Cl)c(C#N)cc1F)[C@@H]1CCN(c2ncnc3[nH]ccc23)C1 [Compound 87] |
| 20 to 50 | CN(c1ccn2nccc2n1)[C@@H]1CCN(c2ncnc3[nH]ccc23)C1 [Compound 88] |
